Results published in patent publication US20180201592A1, “2-AMINO-1,3,4-THIADIAZINE AND 2-AMINO-1,3,4-OXADIAZINE BASED ANTIFUNGAL AGENTS” (F2G Limited, priority 2015, published 2018).

Columns and labels:
Conditions in all cases: banded MIC grade
Aspergillus fumigatus = experiment: Minimum inhibitory concentration, YAG medium; format: cell-based
Procedure, shortened: (§1)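 MIC, in mg/L, defined as the lowest drug level inhibiting growth by >70% relative to drug-free wells, judged by OD 485 nm after 24 hrs at 35° C. Spores (1-2×10^4 cfu/mL) were grown in YAG medium against doubling dilutions, usually 50-0.05 mg/L, repeated at 0.5-0.0005 mg/L where needed.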

A. fumigatus 210 [1] = experiment: Minimum inhibitory concentration, YAG medium; format: cell-based, Aspergillus fumigatus
Procedure, shortened: as §1

A. terreus 49 [2] = experiment: Minimum inhibitory concentration, YAG medium; format: cell-based, Aspergillus terreus
Procedure, shortened: (§2)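 MIC values (mg/L) were derived from well optical density at 485 nm. Plates with Aspergillus spores and doubling aqueous dilutions of compound (5 mg/mL DMSO stock) had been incubated at 35° C for 24 hrs.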

Aspergillus flavus = experiment: Minimum inhibitory concentration, YAG medium; format: cell-based
Procedure, shortened: as §2

Aspergillus niger = experiment: Minimum inhibitory concentration, YAG medium; format: cell-based
Procedure, shortened: as §2

Aspergillus terreus = experiment: Minimum inhibitory concentration, YAG medium; format: cell-based
Procedure, shortened: as §2

A. flavus = experiment: Minimum inhibitory concentration, RPMI medium; format: cell-based
Procedure, shortened: (§3)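 Thawed 5 mg/mL DMSO stocks are vortexed, diluted into sterile water and serially halved in water. The MIC test is then run in RPMI 1640 at 35° C for 24-48 hrs. Wells are read at OD 485 nm.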

A. niger = experiment: Minimum inhibitory concentration, RPMI medium; format: cell-based
Procedure, shortened: as §3

A. terreus 49 [3] = experiment: Minimum inhibitory concentration, RPMI medium; format: cell-based
Procedure, shortened: as §3

A. terreus = experiment: Minimum inhibitory concentration, RPMI medium; format: cell-based
Procedure, shortened: as §3

C. albicans = experiment: Minimum inhibitory concentration, RPMI medium; format: cell-based
Procedure, shortened: as §3

C. glabrata = experiment: Minimum inhibitory concentration, RPMI medium; format: cell-based
Procedure, shortened: as §3

C. krusei = experiment: Minimum inhibitory concentration, RPMI medium; format: cell-based
Procedure, shortened: as §3

C. parapsilosis = experiment: Minimum inhibitory concentration, RPMI medium; format: cell-based
Procedure, shortened: as §3

C. tropicalis = experiment: Minimum inhibitory concentration, RPMI medium; format: cell-based
Procedure, shortened: as §3

A. fumigatus 210 [4] = experiment: Minimum inhibitory concentration, RPMI medium; format: cell-based
Procedure, shortened: (§4)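 Compound doubling dilutions were prepared from 5 mg/mL DMSO stock; fungus was diluted in RPMI 1640 with 2% glucose and 0.135 M MOPS (pH 7.0), giving inocula of 1-2×10^4 cfu/mL and drug range 50-0.05 mg/L. Plates ran 24-48 hrs at 35° C; MIC is the lowest concentration giving >80% growth inhibition by OD485 versus drug-free control.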

A. fumigatus = experiment: Minimum inhibitory concentration, RPMI medium; format: cell-based
Procedure, shortened: as §4

Row | SMILES | MIC grade, A. FUMIGATUS, YAG media (Aspergillus fumigatus) | MIC grade, A. FUMIGATUS 210, YAG media (A. fumigatus 210 [1]) | MIC grade, A. TERREUS 49, YAG media (A. terreus 49 [2]) | MIC grade, A. FLAVUS, YAG media (Aspergillus flavus) | MIC grade, A. NIGER, YAG media (Aspergillus niger) | MIC grade, A. TERREUS, YAG media (Aspergillus terreus) | MIC grade, A. FLAVUS, RPMI media (A. flavus) | MIC grade, A. NIGER, RPMI media (A. niger) | MIC grade, A. TERREUS 49, RPMI media (A. terreus 49 [3]) | MIC grade, A. TERREUS, RPMI media (A. terreus) | MIC grade, C. ALBICANS, RPMI media (C. albicans) | MIC grade, C. GLABRATA, RPMI media (C. glabrata) | MIC grade, C. KRUSEI, RPMI media (C. krusei) | MIC grade, C. PARAPSILOSIS, RPMI media (C. parapsilosis) | MIC grade, C. TROPICALIS, RPMI media (C. tropicalis) | MIC grade, A. FUMIGATUS 210, RPMI media (A. fumigatus 210 [4]) | MIC grade, A. FUMIGATUS, RPMI media (A. fumigatus)
1 | NC1=NN=C(CCCCOCc2ccc(F)cc2F)CS1 | 4 (4: <0.2 mg/L) | 4 (4: <0.2 mg/L) | 4 (4: <0.2 mg/L) | 4 (4: <0.2 mg/L) | 4 (4: <0.2 mg/L) | 4 (4: <0.2 mg/L) | 4 (4: <1 mg/L) | 4 (4: <1 mg/L) | 4 (4: <1 mg/L) | 4 (4: <1 mg/L) | 4 (4: <1 mg/L) | 4 (4: <1 mg/L) | 4 (4: <1 mg/L) | 4 (4: <1 mg/L) | 4 (4: <1 mg/L) | 3 (3: 1-5 mg/L) | 4 (4: <1 mg/L)
2 | NC1=NN=C(CCCCOCc2cccc(Cl)c2)CS1 | 4 (4: <0.2 mg/L) | 4 (4: <0.2 mg/L) | 4 (4: <0.2 mg/L) | 4 (4: <0.2 mg/L) | 4 (4: <0.2 mg/L) | 4 (4: <0.2 mg/L) | 4 (4: <1 mg/L) | 3 (3: 1-5 mg/L) | 3 (3: 1-5 mg/L) | 3 (3: 1-5 mg/L) | 4 (4: <1 mg/L) | 3 (3: 1-5 mg/L) | 4 (4: <1 mg/L) | 4 (4: <1 mg/L) | 4 (4: <1 mg/L) | 2 (2: 5-20 mg/L) | 4 (4: <1 mg/L)
3 | CCCCc1ccc(COCCCCC2=NN=C(N)SC2)cc1 | 1 (1: ≥5 mg/L) | 1 (1: ≥5 mg/L) | 2 (2: 1-5 mg/L) | 3 (3: 0.2-1 mg/L) | 3 (3: 0.2-1 mg/L) | 2 (2: 1-5 mg/L) | 2 (2: 5-20 mg/L) | 2 (2: 5-20 mg/L) | 1 (1: ≥20 mg/L) | 1 (1: ≥20 mg/L) | 2 (2: 5-20 mg/L) | 2 (2: 5-20 mg/L) | 3 (3: 1-5 mg/L) | 3 (3: 1-5 mg/L) | 2 (2: 5-20 mg/L) | 1 (1: ≥20 mg/L) | 1 (1: ≥20 mg/L)
